In PMC10382584, “Macrocyclization of linear molecules by deep learning to facilitate macrocyclic drug candidates discovery” (Nature Communications, 2023) one finds remaining binding data, which are given here for 1 compound.

Among the targets are BMX (Homo sapiens, UniProt P51813); BTK (Homo sapiens, UniProt Q06187); CDKL3 (Homo sapiens, UniProt Q8IVW4); CLK1 (Homo sapiens, UniProt P49759); CLK2 (Homo sapiens, UniProt P49760); EGFR(L858R) (Homo sapiens, UniProt P00533, L858R); EPHB2 (Homo sapiens, UniProt P29323); FLT3-autoinhibited (Homo sapiens, UniProt P36888); GAK (Homo sapiens, UniProt O14976); MAP3K1 (Homo sapiens, UniProt Q13233); MYO3B (Homo sapiens, UniProt Q8WXR4); NEK3 (Homo sapiens, UniProt P51956); PRKG2 (Homo sapiens, UniProt Q13237); SRC (Homo sapiens, UniProt P12931); WNK1 (Homo sapiens, UniProt Q9H4A3).

Assay in all cases: biochemical
Holding throughout (parameters): DiscoveRx KINOMEscan competition binding, percent of DMSO control signal at 100 nM
Common to all, as to conditions: read-out: Fig. 4a / Percent Control / Compound 1; percent of DMSO control, competition binding

Assay [1] addresses T1, ABL1(Q252H)-phosphorylated (Homo sapiens, UniProt P00519, Q252H).
T1 construct: phosphorylated

In assay [2] the target is T2, ABL1(T315I)-nonphosphorylated (Homo sapiens, UniProt P00519, T315I).
T2 construct: nonphosphorylated

For a further assay, the target named is T3, BRK (Homo sapiens, UniProt Q13882).
T3 construct: gene PTK6

Another assay deals with T4, CAMK1B (Homo sapiens, UniProt Q6P2M8).
T4 construct: gene PNCK

The target of assay [3] is T5, RPS6KA5(Kin.Dom.2-C-terminal) (Homo sapiens, UniProt O75582).
T5 construct: Kin.Dom.2-C-terminal

The target in assay [4] is T6, RSK1(Kin.Dom.1-N-terminal) (Homo sapiens, UniProt Q15418).
T6 construct: gene RPS6KA1; Kin.Dom.1-N-terminal

The next assay deals with T7, YANK1 (Homo sapiens, UniProt Q8WU08).
T7 construct: gene STK32A
T7 sequence (Q8WU08 whole entry): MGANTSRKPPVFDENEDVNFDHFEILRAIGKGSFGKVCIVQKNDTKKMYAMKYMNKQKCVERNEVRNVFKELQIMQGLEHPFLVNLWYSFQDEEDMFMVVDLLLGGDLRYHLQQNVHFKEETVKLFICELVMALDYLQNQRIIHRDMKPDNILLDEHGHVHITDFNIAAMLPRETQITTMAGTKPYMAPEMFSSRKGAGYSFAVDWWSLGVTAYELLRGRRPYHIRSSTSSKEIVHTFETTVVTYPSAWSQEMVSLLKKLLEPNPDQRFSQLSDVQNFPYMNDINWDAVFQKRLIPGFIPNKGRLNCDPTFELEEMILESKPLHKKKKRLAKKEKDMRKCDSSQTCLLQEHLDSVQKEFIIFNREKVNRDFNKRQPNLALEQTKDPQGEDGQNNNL

Another assay has as its target T8, YES (Homo sapiens, UniProt P07947).
T8 construct: gene YES1

The next assay has as its target T9, p38-alpha (Homo sapiens, UniProt Q16539).
T9 construct: gene MAPK14
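Note: KINOMEscan kinase panel binding assay, signal normalized between DMSO as 100% and a positive control compound as 0%.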

EPHB2, sequence (P29323 whole entry): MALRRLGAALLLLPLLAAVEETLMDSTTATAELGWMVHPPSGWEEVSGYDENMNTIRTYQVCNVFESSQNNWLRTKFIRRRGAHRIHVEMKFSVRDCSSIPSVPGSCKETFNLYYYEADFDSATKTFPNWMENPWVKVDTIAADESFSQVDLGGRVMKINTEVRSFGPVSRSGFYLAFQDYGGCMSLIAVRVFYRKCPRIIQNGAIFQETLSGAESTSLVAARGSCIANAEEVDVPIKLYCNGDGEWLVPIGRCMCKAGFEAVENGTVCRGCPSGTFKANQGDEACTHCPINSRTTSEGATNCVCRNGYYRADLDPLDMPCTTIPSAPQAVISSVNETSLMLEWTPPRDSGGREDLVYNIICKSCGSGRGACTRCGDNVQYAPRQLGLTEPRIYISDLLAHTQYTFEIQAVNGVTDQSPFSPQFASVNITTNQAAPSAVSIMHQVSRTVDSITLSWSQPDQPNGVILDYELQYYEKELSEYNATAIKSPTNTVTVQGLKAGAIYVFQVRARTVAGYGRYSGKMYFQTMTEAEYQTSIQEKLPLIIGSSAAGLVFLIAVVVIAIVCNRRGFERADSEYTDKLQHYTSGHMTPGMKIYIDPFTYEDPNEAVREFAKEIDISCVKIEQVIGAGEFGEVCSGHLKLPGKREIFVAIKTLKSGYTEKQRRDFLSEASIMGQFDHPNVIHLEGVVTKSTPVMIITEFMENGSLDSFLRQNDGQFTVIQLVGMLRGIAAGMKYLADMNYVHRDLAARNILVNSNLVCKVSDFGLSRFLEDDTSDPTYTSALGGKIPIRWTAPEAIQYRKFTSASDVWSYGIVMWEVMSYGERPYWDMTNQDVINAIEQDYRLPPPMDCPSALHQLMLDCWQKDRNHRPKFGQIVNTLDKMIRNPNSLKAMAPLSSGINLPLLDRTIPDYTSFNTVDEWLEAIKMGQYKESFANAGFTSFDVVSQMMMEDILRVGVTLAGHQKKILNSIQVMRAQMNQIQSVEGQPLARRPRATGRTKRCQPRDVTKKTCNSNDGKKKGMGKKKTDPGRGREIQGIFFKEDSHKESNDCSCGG
BTK, sequence (Q06187 whole entry): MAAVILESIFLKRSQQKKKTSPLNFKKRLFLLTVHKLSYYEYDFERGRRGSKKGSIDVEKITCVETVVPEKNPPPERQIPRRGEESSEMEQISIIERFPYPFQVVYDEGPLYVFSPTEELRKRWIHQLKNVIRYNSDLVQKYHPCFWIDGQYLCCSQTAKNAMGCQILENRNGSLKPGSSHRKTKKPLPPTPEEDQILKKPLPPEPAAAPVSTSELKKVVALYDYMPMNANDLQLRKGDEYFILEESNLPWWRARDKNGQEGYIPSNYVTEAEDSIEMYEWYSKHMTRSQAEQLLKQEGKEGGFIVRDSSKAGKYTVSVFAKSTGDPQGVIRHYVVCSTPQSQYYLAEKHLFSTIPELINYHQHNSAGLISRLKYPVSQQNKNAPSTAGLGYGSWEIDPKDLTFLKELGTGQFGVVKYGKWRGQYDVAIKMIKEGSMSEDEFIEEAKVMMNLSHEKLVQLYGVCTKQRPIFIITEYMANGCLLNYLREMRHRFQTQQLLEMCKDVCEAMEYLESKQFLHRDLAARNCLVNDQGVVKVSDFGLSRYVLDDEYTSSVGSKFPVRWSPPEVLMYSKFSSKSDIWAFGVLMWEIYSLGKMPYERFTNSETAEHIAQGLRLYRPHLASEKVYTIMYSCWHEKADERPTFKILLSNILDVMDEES
MYO3B, sequence (Q8WXR4 whole entry): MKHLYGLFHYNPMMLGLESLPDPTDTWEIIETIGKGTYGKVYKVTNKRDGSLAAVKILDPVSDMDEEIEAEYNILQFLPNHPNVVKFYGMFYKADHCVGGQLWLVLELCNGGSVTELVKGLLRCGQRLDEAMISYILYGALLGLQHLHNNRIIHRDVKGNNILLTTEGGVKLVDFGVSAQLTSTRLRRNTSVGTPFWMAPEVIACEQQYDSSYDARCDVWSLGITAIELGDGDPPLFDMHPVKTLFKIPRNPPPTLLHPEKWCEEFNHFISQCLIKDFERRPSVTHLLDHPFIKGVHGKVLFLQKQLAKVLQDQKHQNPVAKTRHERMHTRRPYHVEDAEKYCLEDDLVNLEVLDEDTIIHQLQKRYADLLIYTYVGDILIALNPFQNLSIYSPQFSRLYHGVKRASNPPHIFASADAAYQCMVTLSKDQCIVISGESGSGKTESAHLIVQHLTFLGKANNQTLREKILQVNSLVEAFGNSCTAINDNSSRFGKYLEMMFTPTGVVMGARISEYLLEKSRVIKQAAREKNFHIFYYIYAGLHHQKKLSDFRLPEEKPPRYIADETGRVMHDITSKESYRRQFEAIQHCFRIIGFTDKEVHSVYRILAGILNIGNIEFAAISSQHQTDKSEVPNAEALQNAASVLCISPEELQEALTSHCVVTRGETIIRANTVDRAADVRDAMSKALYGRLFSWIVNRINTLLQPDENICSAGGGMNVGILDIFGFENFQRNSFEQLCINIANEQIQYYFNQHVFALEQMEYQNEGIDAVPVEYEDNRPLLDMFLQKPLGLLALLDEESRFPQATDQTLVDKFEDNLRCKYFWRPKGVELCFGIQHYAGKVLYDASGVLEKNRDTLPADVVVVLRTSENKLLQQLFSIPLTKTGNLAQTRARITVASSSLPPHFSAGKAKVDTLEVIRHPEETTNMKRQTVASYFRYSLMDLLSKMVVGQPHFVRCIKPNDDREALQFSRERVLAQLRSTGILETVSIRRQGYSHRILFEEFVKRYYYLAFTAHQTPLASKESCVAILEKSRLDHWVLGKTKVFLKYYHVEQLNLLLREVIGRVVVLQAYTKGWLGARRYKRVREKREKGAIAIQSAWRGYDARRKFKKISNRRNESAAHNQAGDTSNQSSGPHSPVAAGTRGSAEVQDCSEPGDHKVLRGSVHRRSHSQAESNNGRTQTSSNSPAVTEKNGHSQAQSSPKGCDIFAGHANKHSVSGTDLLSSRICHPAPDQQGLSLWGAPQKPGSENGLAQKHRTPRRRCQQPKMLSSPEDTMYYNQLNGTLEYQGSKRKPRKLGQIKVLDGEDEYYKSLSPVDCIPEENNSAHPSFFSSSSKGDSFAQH
BMX, sequence (P51813 whole entry): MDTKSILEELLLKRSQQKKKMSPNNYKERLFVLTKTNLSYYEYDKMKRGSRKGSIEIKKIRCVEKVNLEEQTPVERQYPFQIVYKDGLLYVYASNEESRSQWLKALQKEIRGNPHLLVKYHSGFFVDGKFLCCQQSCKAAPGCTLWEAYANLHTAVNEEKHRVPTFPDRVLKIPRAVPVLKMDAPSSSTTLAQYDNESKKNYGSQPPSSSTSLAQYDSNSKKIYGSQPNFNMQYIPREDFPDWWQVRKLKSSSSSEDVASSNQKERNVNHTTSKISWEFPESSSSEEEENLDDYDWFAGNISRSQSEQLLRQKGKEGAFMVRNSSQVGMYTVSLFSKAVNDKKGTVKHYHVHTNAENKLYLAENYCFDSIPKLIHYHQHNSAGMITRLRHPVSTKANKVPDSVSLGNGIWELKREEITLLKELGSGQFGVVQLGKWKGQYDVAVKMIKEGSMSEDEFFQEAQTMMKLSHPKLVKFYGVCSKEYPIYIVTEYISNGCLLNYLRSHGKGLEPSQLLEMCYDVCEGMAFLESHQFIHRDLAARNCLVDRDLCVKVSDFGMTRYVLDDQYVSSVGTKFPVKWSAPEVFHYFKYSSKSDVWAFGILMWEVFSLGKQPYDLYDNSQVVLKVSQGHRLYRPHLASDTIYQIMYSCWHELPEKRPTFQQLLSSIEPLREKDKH
PRKG2, sequence (Q13237 whole entry): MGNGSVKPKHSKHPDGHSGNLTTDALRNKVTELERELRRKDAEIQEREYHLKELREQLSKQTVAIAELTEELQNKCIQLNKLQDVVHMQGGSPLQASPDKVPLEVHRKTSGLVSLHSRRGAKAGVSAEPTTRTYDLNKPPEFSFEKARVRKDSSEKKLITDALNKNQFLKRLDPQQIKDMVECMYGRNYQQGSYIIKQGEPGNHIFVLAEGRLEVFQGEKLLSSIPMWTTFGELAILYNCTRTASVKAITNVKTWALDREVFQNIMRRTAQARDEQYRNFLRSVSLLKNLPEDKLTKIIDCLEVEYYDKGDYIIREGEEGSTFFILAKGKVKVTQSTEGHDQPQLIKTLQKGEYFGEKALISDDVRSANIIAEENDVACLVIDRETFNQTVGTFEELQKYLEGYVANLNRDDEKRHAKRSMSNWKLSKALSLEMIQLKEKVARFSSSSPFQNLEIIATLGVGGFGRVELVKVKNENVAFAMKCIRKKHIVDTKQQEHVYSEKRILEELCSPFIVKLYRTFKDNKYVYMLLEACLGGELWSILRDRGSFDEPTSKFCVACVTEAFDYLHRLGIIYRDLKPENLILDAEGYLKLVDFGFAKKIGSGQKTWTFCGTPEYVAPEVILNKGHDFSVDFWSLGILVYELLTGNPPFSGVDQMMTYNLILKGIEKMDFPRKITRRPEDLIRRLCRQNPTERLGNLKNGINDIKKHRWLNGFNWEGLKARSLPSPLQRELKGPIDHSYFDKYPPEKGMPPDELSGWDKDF

As for `Cc1cnc2nc1Nc1cccc(c1)COCc1cc(ccc1OCCN1CCCC1)N2` [Compound 1], the remaining binding at 0.1 µM in assay [1] is 59%; in assay [2], 80%; on BMX it was 93%; at BRK it was 98%; on BTK it was 86%; at CAMK1B, 92%. Also, the remaining binding at 0.1 µM on CDKL3 is 77%; at CLK1, 95%; at CLK2 it was 81%; at EGFR(L858R) it was 73%; at EPHB2, 88%; at FLT3-autoinhibited, 48%. In addition, the remaining binding at 0.1 µM worked out at 36% on GAK; 79% on MAP3K1; 99% at MYO3B; 90% at NEK3; 47% at PRKG2; 100% in assay [3]. The remaining binding at 0.1 µM in assay [4] is 97%; on SRC, 75%; at WNK1 it was 90%; at YANK1, 73%; on YES it was 80%; on p38-alpha, 100%.
